15 compounds from ChEMBL document CHEMBL4825781, “Role of Fluorination in the Histone Deacetylase 6 (HDAC6) Selectivity of Benzohydroxamate-Based Inhibitors” (ACS Med Chem Lett, 2021) can be followed below.

For one test, the species on record is Homo sapiens. Description: Selectivity index, ratio of IC50 for recombinant human C-terminal His-tagged HDAC1 expressed in Sf9 cells to IC50 for recombinant human full length N-terminal GST-tagged HDAC6 expressed in Sf9 cells.
Test [1] addresses T1, Protein deacetylase HDAC6 (Homo sapiens, UniProt Q9UBN7).
T1 sequence (Q9UBN7 whole entry): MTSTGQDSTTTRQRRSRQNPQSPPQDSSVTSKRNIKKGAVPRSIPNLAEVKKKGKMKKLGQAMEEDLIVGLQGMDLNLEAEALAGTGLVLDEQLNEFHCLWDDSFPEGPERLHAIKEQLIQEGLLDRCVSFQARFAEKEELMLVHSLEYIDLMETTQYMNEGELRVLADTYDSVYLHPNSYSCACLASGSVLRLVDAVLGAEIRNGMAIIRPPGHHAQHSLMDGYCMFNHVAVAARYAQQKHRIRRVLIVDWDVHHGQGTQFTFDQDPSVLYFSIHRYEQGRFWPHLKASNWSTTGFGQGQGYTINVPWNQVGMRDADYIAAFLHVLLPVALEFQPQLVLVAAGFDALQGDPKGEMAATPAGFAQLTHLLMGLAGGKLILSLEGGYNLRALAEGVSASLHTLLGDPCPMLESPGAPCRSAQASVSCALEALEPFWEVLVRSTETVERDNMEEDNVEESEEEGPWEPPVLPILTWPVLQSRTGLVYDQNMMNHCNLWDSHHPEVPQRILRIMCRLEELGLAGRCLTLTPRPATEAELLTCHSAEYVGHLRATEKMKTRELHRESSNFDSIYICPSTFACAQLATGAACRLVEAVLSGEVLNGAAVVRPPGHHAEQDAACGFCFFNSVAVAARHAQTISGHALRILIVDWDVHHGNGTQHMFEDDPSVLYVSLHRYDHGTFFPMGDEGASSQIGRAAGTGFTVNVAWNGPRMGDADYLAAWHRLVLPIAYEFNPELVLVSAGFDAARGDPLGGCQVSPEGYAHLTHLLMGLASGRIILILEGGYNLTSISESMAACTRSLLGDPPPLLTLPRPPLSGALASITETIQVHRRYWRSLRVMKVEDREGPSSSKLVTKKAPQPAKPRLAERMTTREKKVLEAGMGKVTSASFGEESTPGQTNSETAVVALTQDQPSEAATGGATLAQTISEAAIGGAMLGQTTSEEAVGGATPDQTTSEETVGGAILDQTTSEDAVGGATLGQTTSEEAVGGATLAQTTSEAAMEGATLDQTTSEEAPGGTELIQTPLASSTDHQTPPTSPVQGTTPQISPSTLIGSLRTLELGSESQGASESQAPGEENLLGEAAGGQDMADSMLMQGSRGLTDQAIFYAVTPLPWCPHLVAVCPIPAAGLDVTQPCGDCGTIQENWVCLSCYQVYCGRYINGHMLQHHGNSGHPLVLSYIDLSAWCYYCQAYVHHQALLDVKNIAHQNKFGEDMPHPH
Description: Inhibition of recombinant human full length N-terminal GST-tagged HDAC6 expressed in Sf9 insect cells using Fluor de Lys deacetylase or Fluor de Lys Green deacetylase substrate by fluorescent microplate reader assay.

In a further test the target is Histone deacetylase 1 (Homo sapiens, UniProt Q13547). Description: Inhibition of recombinant human C-terminal His-tagged HDAC1 expressed in Sf9 insect cells using Fluor de Lys deacetylase or Fluor de Lys Green deacetylase as substrate by fluorescent microplate reader assay.
Sequence of Histone deacetylase 1 (Q13547 whole entry): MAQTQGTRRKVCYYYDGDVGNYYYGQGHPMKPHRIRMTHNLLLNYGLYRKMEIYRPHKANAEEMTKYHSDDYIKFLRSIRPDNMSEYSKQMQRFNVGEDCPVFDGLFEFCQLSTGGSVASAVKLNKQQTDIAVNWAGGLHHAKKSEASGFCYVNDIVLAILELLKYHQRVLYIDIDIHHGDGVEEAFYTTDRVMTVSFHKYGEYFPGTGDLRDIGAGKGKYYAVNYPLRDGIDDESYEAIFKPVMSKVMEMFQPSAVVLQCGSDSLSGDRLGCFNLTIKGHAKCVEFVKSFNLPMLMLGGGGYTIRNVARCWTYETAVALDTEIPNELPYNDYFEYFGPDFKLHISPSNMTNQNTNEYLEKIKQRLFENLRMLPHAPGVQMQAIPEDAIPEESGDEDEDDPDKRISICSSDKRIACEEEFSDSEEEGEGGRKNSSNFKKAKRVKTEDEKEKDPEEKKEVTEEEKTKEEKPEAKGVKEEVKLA

As usually defined, the IC50 is the concentration that gives 50% inhibition. As for `Nc1ccc(C(=O)NO)cn1`, the Selectivity Index in the test filed under Homo sapiens was 40. Moreover, the results for the IC50 (in test [1]; at Histone deacetylase 1) were 240 nM and 9.71 µM, respectively.

On to `CC(=O)Nc1ccc(C(=O)NO)cc1`, for which, in the test listed under Homo sapiens, the Selectivity Index is 11. For the same compound, the results for the IC50 (in test [1]; on Histone deacetylase 1) were 162 nM and 1.91 µM, respectively.

Regarding `O=C(NO)c1cccnc1` [NICOXAMAT], the Selectivity Index in the test listed under Homo sapiens worked out at 51. In addition, the values for the IC50 (in test [1]; at Histone deacetylase 1) were 679 nM and 35 µM, respectively.

Take `Cc1ccc(C(=O)NO)cn1`: in the test filed under Homo sapiens, the Selectivity Index amounted to 162. Also, the results for the IC50 (in test [1]; on Histone deacetylase 1) were 70 nM and 11.4 µM, respectively.

As to `Nc1ccc(C(=O)NO)cc1F`, in the test listed under Homo sapiens, the Selectivity Index came to 40. The IC50 in test [1] amounted to 183 nM; on Histone deacetylase 1 it was 7.39 µM.

Take `CCN(CC)Cc1ccc2cc(COC(=O)Nc3c(F)cc(C(=O)NO)cc3F)ccc2c1`: the Selectivity Index in the test filed under Homo sapiens amounted to 70. The IC50 in test [1] came to 10 nM; at Histone deacetylase 1 it was 0.718 µM.

Consider `Nc1ncc(C(=O)NO)cn1`, for which the Selectivity Index in the test filed under Homo sapiens was 47. Besides, the IC50 in test [1] worked out at 64 nM; on Histone deacetylase 1 it was 3.06 µM.

`Cc1ccc(C(=O)NO)cc1F`: in the test listed under Homo sapiens, the Selectivity Index was 140. Also, the IC50 in test [1] came to 49 nM; at Histone deacetylase 1 it was 6.82 µM.

In the case of `Nc1c(F)cc(C(=O)NO)cc1F`, the Selectivity Index in the test listed under Homo sapiens worked out at 141. Besides, the IC50 in test [1] was 112 nM; on Histone deacetylase 1, 15.8 µM.

For `CC(=O)Nc1ccc(C(=O)NO)cc1F`, the Selectivity Index in the test filed under Homo sapiens worked out at 55. The IC50 stood at 58 nM in test [1] and 3.21 µM at Histone deacetylase 1.

Consider `O=C(NO)c1cccc(F)c1`, for which, in the test listed under Homo sapiens, the Selectivity Index amounted to 64. For the same compound, the IC50 in test [1] was 453 nM; at Histone deacetylase 1, 29.4 µM.

Consider `Nc1ccc(C(=O)NO)cc1`, for which, in the test listed under Homo sapiens, the Selectivity Index amounted to 18. Further, the figures for the IC50 (in test [1]; on Histone deacetylase 1) were 389 nM and 7.14 µM, respectively.

Regarding `Cc1ccc(C(=O)NO)cc1`, in the test listed under Homo sapiens, the Selectivity Index came to 40. Besides, the IC50 in test [1] is 140 nM; at Histone deacetylase 1, 5.64 µM.

`O=C(NO)c1ccccc1` [BENZOHYDROXAMATE]: the Selectivity Index in the test filed under Homo sapiens was 19. Moreover, the IC50 in test [1] came to 1340 nM; on Histone deacetylase 1, 25.4 µM.

Turning to `Cc1c(F)cc(C(=O)NO)cc1F`, the Selectivity Index in the test filed under Homo sapiens is 505. Further, the 50% inhibitory concentration (IC50) in test [1] came to 27 nM; on Histone deacetylase 1 it was 13.8 µM.
